Laboratory results: ChEMBL document CHEMBL3046017, “Design, synthesis, and docking studies of telmisartan analogs for the treatment of metabolic syndrome” (Med Chem Res, 2009)
Calls of active or inactive are those of the source. The rule behind the calls is not given here.

How the values were obtained:
[1] = target: T1, Peroxisome proliferator-activated receptor gamma (Homo sapiens) (UniProt P37231); experiment: Agonist activity at Homo sapiens (human) PPARgamma LBD expressed in African green monkey CV-1 cells co-expressing GAL4 assessed as beta-galactosidase activity at 10 uM after 24 hr by luciferase reporter gene assay relative to rosiglitazone; assay type: cell-based
T1 sequence (whole entry): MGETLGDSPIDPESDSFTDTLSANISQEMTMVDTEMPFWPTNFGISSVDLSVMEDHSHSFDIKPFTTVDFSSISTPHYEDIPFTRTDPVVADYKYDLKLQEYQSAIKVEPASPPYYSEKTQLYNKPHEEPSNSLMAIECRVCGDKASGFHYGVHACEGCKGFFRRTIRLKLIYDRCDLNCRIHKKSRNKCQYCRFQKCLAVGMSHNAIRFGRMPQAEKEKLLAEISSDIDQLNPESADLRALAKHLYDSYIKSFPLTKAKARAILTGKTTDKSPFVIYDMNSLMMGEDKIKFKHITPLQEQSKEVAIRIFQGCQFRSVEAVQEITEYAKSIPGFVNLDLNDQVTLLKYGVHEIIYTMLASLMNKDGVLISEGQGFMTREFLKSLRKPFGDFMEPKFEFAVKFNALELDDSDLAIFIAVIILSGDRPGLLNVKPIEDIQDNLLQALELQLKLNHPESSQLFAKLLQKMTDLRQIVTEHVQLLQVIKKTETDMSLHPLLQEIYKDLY

[2] = target: T2, Type-1 angiotensin II receptor A (Rattus norvegicus, UniProt P25095); experiment: Displacement of [125I]-SI-Ang-2 from AT1 receptor in Rattus norvegicus Sprague-Dawley (rat) liver membranes after 2 hr; parameters: species or system Membrane
T2 sequence (P25095 whole entry): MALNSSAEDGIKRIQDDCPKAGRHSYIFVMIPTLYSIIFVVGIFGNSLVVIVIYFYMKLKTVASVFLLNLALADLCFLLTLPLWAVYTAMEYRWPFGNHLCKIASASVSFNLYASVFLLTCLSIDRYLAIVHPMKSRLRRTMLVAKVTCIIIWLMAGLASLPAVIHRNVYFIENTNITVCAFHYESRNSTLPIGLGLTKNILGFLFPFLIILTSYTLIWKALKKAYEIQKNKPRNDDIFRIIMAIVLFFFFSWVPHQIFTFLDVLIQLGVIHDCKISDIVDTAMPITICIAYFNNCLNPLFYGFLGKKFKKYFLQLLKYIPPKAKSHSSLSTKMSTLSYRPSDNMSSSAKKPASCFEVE

[3] = system: 3T3-L1; experiment: Induction of adipocyte differentiation in Mus musculus (mouse) 3T3L1 cells at 1 to 5 uM; assay type: functional, cell-based

Row | Structure (SMILES) | %max [1] | Ki [2] | Activity [3]
1 | COC(=O)c1ccc(-c2ccc(Cn3c(C)nc4ccc(-c5nc6ccccc6n5C)cc43)cc2)cc1 | 7.3% | > 10 µM | inactive
2 | Cn1c(-c2ccc3ncn(Cc4ccc(-c5ccccc5)cc4)c3c2)nc2ccccc21 | 5.7% | > 10 µM | inactive
3 | COC(=O)c1ccccc1-c1ccc(Cn2cnc3ccc(-c4nc5ccccc5n4C)cc32)cc1 | 6.3% | > 10 µM | inactive
4 | COC(=O)c1ccc(-c2ccc(Cn3c(C)nc4ccc(-c5nc6ccccc6n5C)cc43)cc2)c(C(=O)OC)c1 | 2.8% | > 10 µM | inactive
5 | COC(=O)c1ccccc1-c1ccc(Cn2cnc3c(C)cccc32)cc1 | 4.7% | > 10 µM | inactive
6 | COC(=O)c1ccc(-c2ccc(Cn3cnc4ccc(-c5nc6ccccc6n5C)cc43)cc2)c(C(=O)OC)c1 | 5.7% | > 10 µM | inactive
7 | CCCc1nc2c(C)cc(-c3nc4ccccc4n3C)cc2n1Cc1ccc(-c2ccc(C(=O)OC)cc2C(=O)OC)cc1 | 8% | 0.65 µM | inactive
8 | COC(=O)c1ccccc1-c1ccc(Cn2cnc3ccccc32)cc1 | 1.8% | > 10 µM | inactive
9 | CCCc1nc2c(C)cc(-c3nc4ccccc4n3C)cc2n1Cc1ccc(-c2ccc(C(=O)O)cc2C(=O)O)cc1 | inactive | 0.188 µM | inactive
10 | COC(=O)c1ccccc1-c1ccc(Cn2c(C)nc3ccc(-c4nc5ccccc5n4C)cc32)cc1 | 6.8% | > 10 µM | inactive
11 | COC(=O)c1ccc(-c2ccc(Cn3cnc4ccc(-c5nc6ccccc6n5C)cc43)cc2)cc1 | 3.6% | > 10 µM | inactive
12 | CCCc1nc2c(C)cc(-c3nc4ccccc4n3C)cc2n1Cc1ccc(-c2ccccc2C(=O)O)cc1 [TELMISARTAN] | 21.2% | 0.00023 µM | Active
